Assay results taken from patent publication US20170218449A1, “ANALYTICAL METHODS AND ARRAYS FOR USE IN THE SAME” (SENZAGEN AB, priority 2010, published 2017).
≈ marks a conversion by molar mass, not a printed value. Like-named read-outs stand apart in the source and are kept apart here.

Columns and labels:
CD86 = CD86 cell surface expression by flow cytometry after chemical stimulation; assay type: cell-based, human; settings: 24 h stimulation, frequency of CD86-positive cells, paired Student's t test
Protocol: Cell surface expression levels of CD86 were monitored after stimulation with chemicals for 24 h. FIG. 2A). Chemical-induced upregulation of CD86, in terms of changes in frequency of positive cells, were determined by flow cytometry, as exemplified by the comparison of 2-aminophenol-stimulated cells (right dotplot) and unstimulated controls (left dotplot). Results are shown from one representative experiment out of three. Gates were set to exclude debris and dead cells, and quadrants were established by comparing with relevant isotype controls. FIG. 2B) Compilation of frequencies of CD86-positive cells after 24 h of stimulation. Statistical analysis was performed using paired Student's t test. *p<0.05, # p<0.01. NA, not analysed.
CD86 is the most extensively studied biomarker for sensitization to date, in cell-systems such as monocyte derived dendritic cells (MoDCs) or dendritic cell-like human cell lines and their progenitors, such as THP-1, U-937 and KG-1. Thus, as a reference, cell surface expression of CD86 was measured with flow cytometry after 24h stimulation with 20 sensitizers and 20 non-sensitizers, as well as with vehicle controls (Table 1). […]. […] Consequently, CD86 cannot classify skin sensitizers, using a cell based system such as MUTZ-3.
The human myeloid leukaemia-derived cell line MUTZ-3 (DSMZ, Braunschweig, Germany) was maintained in a-MEM (Thermo Scientific Hyclone, Logan, Utah) supplemented with 20% (volume/volume) fetal calf serum (Invitrogen, Carlsbad, Calif.) and 40 ng/ml rhGM-CSF (Bayer HealthCare Pharmaceuticals, Seattle, Wash.), as described. Prior to each experiment, the cells were immunophenotyped using flow cytometry as a quality control. Cells were seeded in 6-well plates at 200.000 cells/ml. Stock solutions of each compound was prepared in either DMSO or distilled water, and were subsequently diluted so the in-well concentrations corresponded to the Rv90 value, and in-well concentrations of DMSO were 0.1%. Cells were incubated for 24h at 37° C. and 5% CO2. Thereafter, cells were harvested and analysed with flow cytometry. In parallel, harvested cells were lysed in TRIzol reagent (Invitrogen) and stored at −20° C. until RNA extraction. Stimulations with chemicals were performed in three individual experiments, so that triplicates samples were obtained.
All cell surface staining and washing steps was performed in PBS containing 1% BSA (w/v). Cells were incubated with specific mouse mAbs for 15 min at 4° C. The following mAbs were used for flow cytometry: FITC-conjugated CD1a (DakoCytomation, Glostrup, Denmark), CD34, CD86, and HLA-DR (BD Biosciences), PE-conjugated CD14 (DakoCytomation), CD54 and CD80 (BD Biosciences). Mouse IgG1, conjugated to FITC or PE were used as isotype controls and PI was used to assess cell viability (BD Biosciences). FACSDiva software was used for data acquisition with FACSCanto II instrument (BD Bioscience). 10,000 events were acquired and gates were set based on light scatter properties to exclude debris and nonviable cells. Further data analysis was performed using FCS Express V3 (De Novo Software, Los Angeles, Calif.).

[1] = system: draining lymph nodes of mice; settings: cited from earlier work
MUTZ-3 cells [2] = assay: transcriptional profiling (Affymetrix Human Gene 1.0 ST arrays) with PCA of chemically stimulated cells; assay type: cell-based
Protocol: The genomic expression arrays were used to test 20 sensitizers and 20 non-sensitizers, in triplicates, and vehicle controls such as DMSO and distilled water, the latter in twelve replicates.
The human myeloid leukaemia-derived cell line MUTZ-3 (DSMZ, Braunschweig, Germany) was maintained in a-MEM (Thermo Scientific Hyclone, Logan, Utah) supplemented with 20% (volume/volume) fetal calf serum (Invitrogen, Carlsbad, Calif.) and 40 ng/ml rhGM-CSF (Bayer HealthCare Pharmaceuticals, Seattle, Wash.), as described [10]. Prior to each experiment, the cells were immunophenotyped using flow cytometry as a quality control. Cells were seeded in 6-well plates at 200.000 cells/ml. Stock solutions of each compound was prepared in either DMSO or distilled water, and were subsequently diluted so the in-well concentrations corresponded to the Rv90 value, and in-well concentrations of DMSO were 0.1%. Cells were incubated for 24h at 37° C. and 5% CO2. Thereafter, cells were harvested and analysed with flow cytometry. In parallel, harvested cells were lysed in TRIzol reagent (Invitrogen) and stored at −20° C. until RNA extraction. Stimulations with chemicals were performed in three individual experiments, so that triplicates samples were obtained.
RNA isolation and gene chip hybridization was performed as described [22]. […] The preparation of labeled sense DNA was performed according to Affymetrix GeneChip Whole Transcript (WT) Sense Target Labeling Assay (100 ng Total RNA Labeling Protocol) using the recommended kits and controls (Affymetrix, Santa Clara, Calif.). Hybridization, washing and scanning of the Human Gene 1.0 ST Arrays were performed according to the manufacturer's protocol (Affymetrix).
The microarray data were normalised and quality checked with the RMA algorithm, using Affymetrix Expression Console (Affymetrix).

MUTZ-3 cells [3] = assay: cytotoxicity by Propidium Iodide, relative viability (Rv90)
Protocol: A panel of chemicals consisting of 20 sensitizers and 20 non-sensitizers were used for cell stimulations. […] All chemicals were from Sigma-Aldrich, St. Louis, Mo., USA. Compounds were dissolved in either Dimethyl sulfoxide (DMSO) or distilled water. Prior to stimulations, the cytotoxicity of all compounds were monitored, using Propidium Iodide (PI) (BD Biosciences, San Diego, Calif.) using protocol provided by the manufacturer. The relative viability of stimulated cells was calculated as
For toxic compounds, the concentration yielding 90% relative viability (Rv90) was used. For untoxic compounds, a concentration of 500 μM was used when possible. For non-toxic compounds that were insoluble at 500 μM in medium, the highest soluble concentration was used. For compounds dissolved in DMSO, the in-well concentration was 0.1% DMSO.

Max solubility in medium = settings: vehicle DMSO or water
human [4] = settings: in vivo; cited from earlier work
human [5] = settings: in vivo; cited from earlier work; remark: listed apart in the source
physchem = settings: plasma or biological fluid, kinetic from dmso stock
[6] = sensitizing potency category based on murine LLNA classification
[7] = concentration yielding 90% relative viability, PI staining
[8] = 24 h stimulation, one or more replicate

| SMILES | CD86 cell surface expression (CD86) | Potency [1, 6] | PCA grouping, 1137 genes (comparing the different stimulations), FIG. 3D (MUTZ-3 cells [2]; 24 h stimulation, triplicates) | PCA grouping, 1010 transcripts (sensitizing vs. non-sensitizing ANOVA), FIG. 3B (MUTZ-3 cells [2]; [8]) | also measured |
| --- | --- | --- | --- | --- | --- |
| O=[N+]([O-])c1ccc(Cl)c([N+](=O)[O-])c1 [2,4-Dinitrochlorobenzene] | significantly up-regulated | Extreme [15] | replicates that group together, separate from the negative group | – | Rv90 (MUTZ-3 cells [3]; [7]): 4 µM |
| Nc1ccccc1O [2-Aminophenol] | significantly up-regulated | Strong [27] | – | – | PCA grouping, 1137 genes (comparing the different stimulations), FIG. 3D (MUTZ-3 cells [2]): replicates that group together, separate from the negative group; Rv90 (MUTZ-3 cells [3]; [7]): 100 µM |
| C=CC(=O)OCCO [2-Hydroxyethyl acrylate] | significantly up-regulated | – | replicates that group together, separate from the negative group | – | Rv90 (MUTZ-3 cells [3]; [7]): 100 µM |
| Sc1nc2ccccc2s1 [2-Mercaptobenzothiazole] | significantly up-regulated | Moderate [27] | replicates that group together, separate from the negative group | – | – |
| Nc1ccc(N)c([N+](=O)[O-])c1 [2-nitro-1,4-Phenylendiamine] | significantly up-regulated | – | replicates that group together, separate from the negative group | – | – |
| O=Cc1ccccc1 [Benzaldehyde] | – | – | – | – | Max solubility (Max solubility in medium): 250 µM |
| O=CC=Cc1ccccc1 [Cinnamaldehyde] | significantly up-regulated | – | – | – | Rv90 (MUTZ-3 cells [3]; human): 120 µM; HMT (human [4]): +; HPTA (human [5]): + |
| OC/C=C/c1ccccc1 [Cinnamic alcohol] | – | Weak [27] | replicates that group together, separate from the negative group | – | – |
| NCCN [Ethylendiamine] | – | Moderate [14] | – | group together with the control group | – |
| C=CCc1ccc(O)c(OC)c1 [Eugenol] | – | Weak [28] | – | group together with the control group | Rv90 (MUTZ-3 cells [3]; human): 300 µM |
| C=O [Formaldehyde] | – | – | – | – | Potency ([1]; mouse, in vivo): Strong [15]; Rv90 (MUTZ-3 cells [3]; human): 80 µM |
| O=CC=O [Glyoxal] | – | – | – | group together with the control group | Potency ([1]; mouse, in vivo): Moderate [27]; Rv90 (MUTZ-3 cells [3]; [7]): 300 µM |
| CCCCCCC(C=O)=Cc1ccccc1 [Hexylcinnamic aldehyde] | – | Moderate [15] | – | group together with the control group | – |
| CC=Cc1ccc(O)c(OC)c1 [Isoeugenol] | – | Moderate [28] | – | group together with the control group | Rv90 (MUTZ-3 cells [3]; human): 300 µM |
| CCCCCCCC(=O)O [Octanoic acid] | – | – | – | tend to group with the sensitizers | – |
| CCO/C=C1\N=C(c2ccccc2)OC1=O [Oxazolone] | – | – | – | – | Potency ([1]; mouse, in vivo): Extreme [15] |
| CC1(C)S[C@@H]2[C@H](NC(=O)Cc3ccccc3)C(=O)N2[C@H]1C(=O)O [Penicillin G] | – | Weak [28] | – | group together with the control group | – |
| Oc1ccccc1 [Phenol] | – | – | – | – | PCA grouping, 1010 transcripts (sensitizing vs. non-sensitizing ANOVA), FIG. 3B (MUTZ-3 cells [2]): tend to group with the sensitizers |
| [K+].[K+].[O]=[Cr](=[O])([O-])[O][Cr](=[O])(=[O])[O-] [Potassium dichromate] | – | Extreme [14] | – | – | PCA grouping, 1137 genes (comparing the different stimulations), FIG. 3D (MUTZ-3 cells [2]): discrete profile |
| Oc1cccc(O)c1 [Resorcinol] | significantly up-regulated | Moderate [29] | replicates that group together, separate from the negative group | group together with the control group | – |
| CCCCCCCCCCCCOS(=O)(=O)[O-].[Na+] [Sodium dodecyl sulphate] | – | – | – | – | Rv90 (MUTZ-3 cells [3]; [7]): 200 µM |
| CCCCCCCC/C=C\CCCCCCCC(=O)OCCOCC(OCCO)C1OCC(OCCO)C1OCCO (centres unmarked) [Tween 80] | – | – | – | tend to group with the sensitizers | – |
| Nc1ccc(N)cc1 [p-Phenylendiamine] | significantly up-regulated | Strong [28] | replicates that group together, separate from the negative group | – | solubility (physchem): 566 µM (≈ 61.2 µg/mL); Rv90 (MUTZ-3 cells [3]; [7]): 75 µM |
